Laboratory results published in publication PMC11674305, “Inhibition of Neural Crest Cell Migration by Strobilurin Fungicides and Other Mitochondrial Toxicants” (Cells, 2024).

Experiments:
complex III (cIII) = target: T1, complex III (cIII) (Homo sapiens, UniProt P00156); test: Electron transport chain complex activity in permeabilized NCC (Seahorse); assay type: cell-based; details: 60 μM (BMC10(V) of cMINC)
T1 construct: endogenous in cells; host or cells: neural crest cells (NCC), digitonin-permeabilized
Source text: Magel et al. (2024): Inhibition of neural crest cells migration by strobilurin fungicides
Figure S9. Inhibition of electron transport chain complexes by picoxystrobin in neural crest […]
NCC were exposed to the BMC10(V) of the cMINC assay (60 μ M). The grey area indicates th e non-significant range of the assay (≤ 25% change). The effect on complex IV (cIV) was non-significant (green bar). The purple bar indicates complex III (cIII) inhibition. Yellow bars […]
that for these assays, the electrons have to pass cIII to reach cIV (oxygen consumption), i.e. electrons from cI (or cII) cannot be used for the reduction of oxygen, as they need to flow through cIII (which is blocked). The pattern of inhibition is indicative of cIII as illustrated earlier (Delp et al., 2019; van der Stel et al., 2020).
To investigate the inhibition pattern of picoxystrobin, NCC were permeabilized and complex-specific substrates and inhibitors were sequentially injected as described earlier (Delp et al., 2019). In detail, cells were permeabilized with MAS buffer (220 mM mannitol, 1 mM ADP, 70 mM sucrose, 10 mM KH2PO4, 5 mM MgCl2, 2 mM HEPES, 1 mM EGTA, 4 mg/ml fatty acid-free BSA, pH = 7.2) supplemented with 25 μ g/mL digitonin. Seahorse measurements were started directly afterwards, and basal OCRs were assessed for internal normalization. Then picoxystrobin was injected and cI activity was assessed. […]

neural crest cells (NCC) [1] = test: Seahorse oxygen consumption rate (mitochondrial stress test); assay type: cell-based, human
Method: The Seahorse bioanalyzer simultaneously measures cellular oxygen consumption rates (OCR) and extracellular acidification rates (ECAR). Therefore, NCCs were seeded at least two days prior to the assays at a density of 80,000 cells/well on Seahorse XF96 V3 PS Cell Culture Microplates (Agilent, Santa Clara, CA, USA) in either glucose medium or galactose medium. After 24 h, the medium was exchanged. For the real-time ATP production rate and mitochondrial stress assay, the cartridge was hydrated at 0% CO2 and 37 °C, and the seahorse was turned on to stabilize the temperature one day prior. The medium was changed to Seahorse XF DMEM Medium (Agilent, Santa Clara, CA, USA) supplemented with 2 mM L-glutamine, 1 mM pyruvate and 18 mM glucose or galactose 1 h before the start of the assays. Directly before the start of the assay, the medium was exchanged again. The sensor cartridge was loaded with the test compounds anchored to the BMC10 (V) of the cMINC screen and the recommended concentrations of calibration compounds for a mitochondrial stress test. These were 5 μM oligomycin, 15 μM carbonyl cyanide p-trifluoro methoxyphenylhydrazone (FCCP) and 5 μM rotenone plus 5 μM antimycin A. Additionally, 1 μg/mL H-33342 was added to the rotenone and antimycin A injection to perform afterwards a cell count (Cellomics, Waltham, MA, USA), to which the data were normalized. Six technical replicates were used for control conditions, and three technical replicates were used for other samples. The software Seahorse Analytics (Agilent, Santa Clara, CA, USA) was used for the evaluation (https://seahorseanalytics.agilent.com (accessed on 30 October 2024)).

neural crest cells (NCC) [2] = test: cMINC (UKN2) assay: circular migration of neural crest cells, with viability; assay type: cell-based, human; details: for Ratio: migration/cytotoxicity ratio, hit requires ≥ 1.3, HTC used where no viability effect
Method: The research group initially developed the first version of the test in 2012 [40]. The test has been further improved and characterized. To perform the cMINC assay, NCCs were thawed in N2-S Medium and seeded on the day of migration-1 (DoM-1) on a 96-well polystyrene plate (Corning, Glendale, AZ, USA) around stoppers, to create a cell-free area of 2 mm diameter (Platypus Technologies, Madison, WI, USA). The cells were resuspended in N2-S Medium supplemented with […] of the cytokines EGF and FGF, and then counted and seeded around the stoppers at a density of 95,000 cells/cm^2. After 24 h, the stoppers were removed, and the medium was exchanged. The removal of the stoppers initiates migration of the NCCs into the cell-free area. For the treatment, the 5x-concentrated toxicant solution was added to the medium 24 h after stopper removal.
On day 2, cells were stained with 533 nM calcein-AM and 1 μg/mL H-33342 (both from Sigma, Steinheim, Germany) and observed using two different channels on the Cellomics ArrayScan VTI imaging microscope (Thermo Fisher, Pittsburgh, PA, USA) to assess viability and migration. For the migration, four pictures were taken in the region of interest (ROI) (5× magnification objective). Migration data were obtained using the software “Ringassay” (http://invitrotox.uni-konstanz.de/ (accessed on 3 November 2024)), which can estimate the previously cell-free area and count the number of H-33342 and calcein-AM double-positive cells. Cell viability was assessed by taking four pictures outside of the ROI with 10× magnification objective. Viable cells were defined as H-33342 and calcein-AM double-positive cells and calculated by an automatic algorithm of the ArrayScan VTI 700 Series software as described earlier. […] Each plate included wells for testing of negative (0.1% DMSO solvent) and positive controls (200 nM cytochalasin D) in addition to the wells for blinded samples. The data from control wells were used as acceptance criteria of the assay. […] Renormalization of the concentration–response curves was performed after a visual inspection that the two lowest test-concentration data points are in the no-effect range. The average response (relative to solvent control) of the lowest two test concentrations was calculated, and all other data points of the same curve were divided by this average value. The calculations of the benchmark concentrations 10 for viability (BMC10 (V)) and 25 for migration (BMC25 (M)) were performed with the online available BMC software (http://invitrotox.uni-konstanz.de/ (accessed on 4 November 2024)).

Compound: CO/C=C(/C(=O)OC)c1ccccc1COc1cccc(C(F)(F)F)n1 [Picoxystrobin, picoxystrobin]
- effect on complex III (cIII) (complex III (cIII)): inhibition of complex III
- lowering of OCR POD by 24 h pre-treatment (neural crest cells (NCC) [1]; 24 h pre-treatment vs acute exposure): 10 fold
- BMC25 (OCR), POD (neural crest cells (NCC) [1]; 24 h pre-treatment, galactose medium): 0.4 µM
- Migration (neural crest cells (NCC) [2]; Pre-Screen 1, single concentration 1:1000 of stock, in most cases 100 μM): 65 % of control
- effect of 1% HSA on inhibition of NCC migration (neural crest cells (NCC) [2]; medium supplemented with 1% human serum albumin): did not alter the effect
- BMC25 (M) (neural crest cells (NCC) [2]; migration, primary screen, 24 h exposure): 1e-05 M
- Ratio (neural crest cells (NCC) [2]): 6.0
- Ratio (neural crest cells (NCC) [2]; listed as BC2): 6.1
